# In patent US10953051B2, “Methods and means for protecting the skin against pathogenic microorganisms” (Novozymes A/S, priority 2005, dated 2021):
# Positions of bridges follow the written chain, without caps; N, C: chain ends. Non-standard residues stand in square brackets, D forms with d. Residues, ends and D or L forms follow the SMILES beside them. *: point of attachment. Ileψ(thiazoline)Cys = CC[C@H](C)[C@H](N)C1=N[C@H](C(=O)*)CS1; dOrn = NCCC[C@@H](N)C(=O)O
# Tests used:
# resident flora = conditions: infants, after treatment with the antibiotic (Brook, 2000); cited from earlier work
# [1] = tested on: Staphylococcus aureus (DSM346); test: in-vitro-hole plate assay, growth inhibition of S. aureus in comparison to bacitracin and erythromycin; assay type: cell-based; conditions: pre-cutted holes, BHI plates; antibiotics at different concentrations, defined numbers of Lactobacillus cells
# Procedure: The term “microorganisms of the pathogenic transient micro flora” has been described herein above. Preferably, the term relates to Staphylococcus aureus. […] This effect has been compared to commercial antibiotic cream preparations of bacitracin and erythromycin. […] The diameter of the inhibition zones has been measured and the area of inhibition has been calculated thereof. […] Lactic acid bacteria were cultivated (OB-LB-Sa3; DSM 18006) from a −80° C. freezing culture in 1 ml MRS broth in eppendorf tubes. Tubes were closed and cultivated for 2 days at 37° C. 10 μl of this pre culture was transferred to the main culture consisting of 7 ml MRS broth in falcon tubes. The culture was incubated for 2 days. After cultivation cells were harvested by centrifugation (15 min, 4000×g). The cell pellet was washed two times with K/Na-buffer (each 1 ml). Cells were resuspended in 200 μl K/Na buffer. The indicator strain was Staphylococcus aureus (DSM346). 20 ml BHI broth in a shaking glass flask were inoculated with 15 μl of a 24 h pre culture. The indicator strain was cultivated for 24 h at 37° C. An aliquot was diluted to an optical density OD595 nm of 0.025-0.05 in BHI-broth and 800 μl spread on indicator plates (BHI). The agar was stamped using a cork borer. The holes were filled with 5 μl or 10 μl of the pre cultured lactic acid bacteria or corresponding volumes of commercial antibiotic preparations.
Compound,repression of the resident flora (resident flora),"growth inhibition of S. aureus (inhibition zone, area of inhibition) [1]"
CC1(C)S[C@@H]2[C@H](NC(=O)[C@H](N)c3ccc(O)cc3)C(=O)N2[C@H]1C(=O)O [amoxicillin],about 50%,–
CC[C@H](C)[C@H](N)C1=N[C@H](C(=O)N[C@@H](CC(C)C)C(=O)N[C@H](CCC(=O)O)C(=O)N[C@H](C(=O)N[C@H]2CCCCNC(=O)[C@H](CC(N)=O)NC(=O)[C@@H](CC(=O)O)NC(=O)[C@H](Cc3cnc[nH]3)NC(=O)[C@@H](Cc3ccccc3)NC(=O)[C@H]([C@@H](C)CC)NC(=O)[C@@H](CCCN)NC2=O)[C@@H](C)CC)CS1 [bacitracin] ({Ileψ(thiazoline)Cys}-L[dE]IK[dOrn]I[dF]H[dD]N; lactam 4-C),–,growth inhibition
CC[C@H]1OC(=O)[C@H](C)[C@@H](O[C@H]2C[C@@](C)(OC)[C@@H](O)[C@H](C)O2)[C@H](C)[C@@H](O[C@@H]2O[C@H](C)C[C@H](N(C)C)[C@H]2O)[C@](C)(O)C[C@@H](C)C(=O)[C@H](C)[C@@H](O)[C@]1(C)O [erythromycin],–,growth inhibition
Lactobacillus delbrückii ssp. delbrückii OB-LB-Sa3,–,growth inhibition
